For series [1], the system named is peptide transporter. Put plainly: Uptake of [^3H]Gly-Sar by MDCKII-MDR1 cells in the presence of drug/derivative. In kind it is cell-based, dog. Particulars: for Uptake of [^3H]Gly-Sar: control 0.033; for Inhibition of [^3H]Gly-Sar uptake: MDCKII-MDR1 cells, quinidine and derivatives. The protocol: Studies were performed to investigate whether derivatives of quinidine are substrates for a nutrient peptide transport system.
Unlabeled Gly-Sar at concentrations of 1 and 2 mM reduced the uptake of [^3H]Gly-Sar from 0.033 to 0.026 pmol/(min mg) (20%) and 0.019 pmol/(min mg) (41%), respectively (FIG. 9).

The test system of series [2] is MDCKII-MDR1 cell homogenates. Particulars: dog. As to the method:
Confluent MDCKII-MDR1 cells were washed three times with Dulbecco's phosphate buffered saline (DPBS) (130 mM NaCl, 7.5 mM Na2HPO4, 1.5 mM KH2PO4, 0.5 mM MgSO4, 1 mM CaCl2, […] and 5 mM glucose). Cells were then isolated with the aid of a mechanical scrapper and suspended in two volumes of water and homogenized (Multipro variable speed homogenizer, DREMEL; Racine, Wis.). Suitable dilutions were made to achieve a final protein concentration of 0.25 mg/mL. Protein content was determined according to the method of Bradford (Bradford, Anal. Biochem., 72, 248 (1976)) with BioRad protein estimation kit.
An aliquot (800 μL) of the cell homogenate was incubated with 200 μL (30 μg/mL) prodrug solution at 37° C. in a shaking water bath (60 rpm). One hundred microlitres samples were withdrawn at predetermined time points and an equal volume of ice-cold acetonitrile:methanol (5:4) mixture was added to stop the enzymatic reaction. Samples were stored at −80° C. until further analysis.

The conditions of series [3]: buffer. The protocol:
Stability in DPBS was determined by incubating 200 μL prodrug solution with 800 μL DPBS with pH adjusted to 5 and 7.4. Slope of the line of “log percentage prodrug remaining versus time” plot was employed to calculate the degradation rate constants.

Series [4] has as its system MDCKII-MDR1 cell monolayers. Put plainly: in vitro. As to the method:
(§1) Confluency was assessed by light microscopy.
(§2) Transport studies were conducted with MDCKII-MDR1 cell monolayers grown on 12-well Transwell® inserts (12 mm diameter). The medium was aspirated, and cell monolayers were washed three times (10 minutes per wash) with DPBS (pH 7.4). Volumes of the apical and basolateral chambers were 0.5 and 1.5 ml, respectively. Transport experiments were conducted for a period of 3 hours. Aliquots (200 μl) were withdrawn at predetermined time intervals, i.e., 15, 30, 45, 60, 90, 120, 150, and 180 minutes and replaced with fresh DPBS (pH 7.4) to maintain sink conditions. Samples were stored at −80° C. until further analysis. Experiments designed to investigate the effect of inhibitors involved preincubation of the cells with the inhibitor for a period of 30 minutes (inhibitor solution was added to both donor and receiver chambers) prior to the addition of the drug solution (also containing the inhibitor) to initiate the transport study. All transport experiments were performed at 37° C.
(§3) The HPLC system comprised an HP 1050 pump, an Agilent 1100 series fluorescence detector, and an Alcott autosampler (model 718 HPLC). A C(8) Luna column (250 mm×4.6 mm); Phenomenex, Torrance, Calif.) was employed in the analysis. The mobile phase consisted of 20 mM phosphate buffer (pH adjusted to 2.5) and 12% acetonitrile as the organic modifier. The parent drug and the derivative were detected with a fluorescence detector (λex=240 nm, λem=450 nm).
(§4) Linear regression analysis of the amounts transported as a function of time yielded the rate of transport across the cell monolayer (dM/dt). The rate divided by the cross-sectional are available for transport (A) generated the steady-state flux as shown in Equation 1. flux=(dM/dt)/A (Equation 1) Permeability was calculated by normalizing the steady-state flux to the donor concentration (Cd) of the drug according to Equation 2. Permeability=flux/Cd (Equation 2)
(§5) Transport studies with MDCKII-MDR1 cell monolayers were carried out as described in Example 7. […] Detection issues of the prodrug and/or parent drug in the acceptor chamber was considered for the selection of prodrug concentration. Aliquots (200 μL) were withdrawn at predetermined time intervals, i.e., 15, 30, 45, 60, 90, 120, 150, 180 min, respectively, and replaced with fresh DPBS, pH 7.4, to maintain sink conditions. Dilutions were taken into account for the calculations. Samples were stored at −80° C. until further analysis. All transport experiments were performed at 37° C.
(§6) The HPLC system was comprised of HP 1050 pump, Waters dual wavelength absorbance UV detector, and an Alcott auto sampler (model 718AL HPLC). A C(8) Luna column (250 mm×4.6 mm; Phenomenex, Torrance, Calif.) was employed for the separation of analytes. Mobile phase composed of acetonitrile:water:triethylamine (55:44:1%, v/v/v) and the pH was adjusted to 6.5 with o-phosphoric acid. Flow rate was maintained at 0.8 mL/min and detection wavelength was set at 240 nm.
(§7) Intact prodrug transported and breakdown products, formed during the transport study, were analyzed. Cumulative amount of drug transported (the sum of prodrug and regenerated parent drug) was plotted as a function of time. Apparent permeabilities (Papp) were determined from the linear portion of the cumulative amount versus time plot.

In series [5] the target is P-gp (Homo sapiens, UniProt P08183). Particulars: MDCKII-MDR1 cells. The text has this:
Two different concentrations were employed to examine the effect of prodrug concentration on P-gp inhibition.

The test system of series [6] is peptide transporter. Put plainly: Uptake of [^3H]Gly-Sar by MDCKII-MDR1 cells in the presence of drug/derivative. In kind it is cell-based, dog. As to conditions: for Effect on [^3H]Gly-Sar uptake: 100 μM SQV or prodrug; for Reduction of [^3H]Gly-Sar uptake: 100 μM prodrug; for Concentration dependence of inhibition of [^3H]Gly-Sar uptake: SQV prodrugs, different concentrations up to 100 μM.

Series [7] in a line: in vitro. As to conditions: dog, MDCK-MDR1. The protocol: as §1, §2, §3, §4, §5, §6, §7
In series [8] the test system is P-gp (human MDR1). Put plainly: in vitro. Particulars: dog, MDCK-MDR1, pH 7.4. As to the method: as §1, §2, §3, §4, §5, §6, §7
Series [9] has as its system P-gp. As to conditions: rabbit, in vivo.
Protocol: Adult male New Zealand albino rabbits weighing between 2-2.5 kg were obtained from Myrtle's rabbitry, Thompson Station, Tenn. Throughout an experiment, the animals were kept under anesthesia with ketamine HCl (35 mg/kg) and xylazine (3.5 mg/kg) given intramuscularly every hour. Pupils were dilated with two drops of 1% tropicamide prior to implantation of microdialysis probes. Linear probes were implanted in the anterior chamber using 25-gauge needles. They were inserted across the cornea just above the corneal scleral limbus so that they traversed through the center of the anterior chamber to the opposite end of the cornea, as evidenced by microscopic examination. The sample-collecting end of the linear probe was inserted carefully into the beveled edge end of the needle. The needle was retracted slowly, leaving the probe in the dialyzing membrane in the middle of the anterior chamber. The outlets of the probes were fixed to prevent any disturbances during sample collection. The probes were perfused with isotonic IPBS (pH 7.4) at a flow rate of 2 μl/min using a CMA/100 microinjection pump. After probe implantation, the animals were allowed to stabilize for 2 hours prior to the initiation of any study. […] Samples obtained in the study were analyzed by a scintillation counter (LS 6500, Beckman Instruments, Inc., Fullerton, Calif.).
Series [10] deals with P-gp (Oryctolagus cuniculus, UniProt Q6UUW3). Particulars: rPCEC cells, equimolar concentrations.
Protocol: Adult male New Zealand albino rabbits weighing between 2-2.5 kg were obtained from Myrtle's rabbitry, Thompson Station, Tenn. Rabbit corneas were excised and washed thoroughly with DPBS, blotted dry, and transferred to sterile culture dishes containing 0.5 ml trypsin (0.25%) or 1.2 U/ml protease (Dispase II, Roche Molecular Biochemical). The corneas were placed upside down (with the concave surface touching the protease solution) and incubated at 37° C. for 30 minutes. The epithelial cells were stripped off with gentle scraping from peripheral areas (1-1.5 mm from the limbus) to the center. Care was taken to peel only the epithelial layer and not the underlying stromal layer, because that would contaminate the epithelial cells with keratinocytes. Cells were washed with MEM (Life Technologies, Grand Island, N.Y.) and placed in culture dishes. After 12 hours (when most of the cells had attached to the bottom), the MEM was removed and fresh MEM supplemented with insulin (5 μg/ml), transferrin (5 μg/ml), sodium selinite (5 μg/ml), amphotericin B (0.25 μg/ml), polymyxin B sulfate (0.5 μg/ml), penicillin (100 U/ml), streptomycin (100 μg/ml), human recombinant epidermal growth factor (10 ng/ml), and bovine pituitary extract (50 μg/ml) were added. The medium was changed twice a week, and the cells were subcultured every 7 to 10 days (subculture ratio, 1:5). […]

“Also recorded” adds a separate entry of the source. Square brackets hold non-standard residues; d marks the D form. Peptide text beside a SMILES is read from it. Sar = CNCC(=O)O

Eight compounds from US20070142302A1, “PEPTIDYL PRODRUGS THAT RESIST P-GLYCOPROTEIN MEDIATED DRUG EFFLUX” (The Curators of the University of Missouri, priority 2004, published 2007) can be followed below.

Chain of P-gp (Homo sapiens, UniProt P08183) (P08183 whole entry): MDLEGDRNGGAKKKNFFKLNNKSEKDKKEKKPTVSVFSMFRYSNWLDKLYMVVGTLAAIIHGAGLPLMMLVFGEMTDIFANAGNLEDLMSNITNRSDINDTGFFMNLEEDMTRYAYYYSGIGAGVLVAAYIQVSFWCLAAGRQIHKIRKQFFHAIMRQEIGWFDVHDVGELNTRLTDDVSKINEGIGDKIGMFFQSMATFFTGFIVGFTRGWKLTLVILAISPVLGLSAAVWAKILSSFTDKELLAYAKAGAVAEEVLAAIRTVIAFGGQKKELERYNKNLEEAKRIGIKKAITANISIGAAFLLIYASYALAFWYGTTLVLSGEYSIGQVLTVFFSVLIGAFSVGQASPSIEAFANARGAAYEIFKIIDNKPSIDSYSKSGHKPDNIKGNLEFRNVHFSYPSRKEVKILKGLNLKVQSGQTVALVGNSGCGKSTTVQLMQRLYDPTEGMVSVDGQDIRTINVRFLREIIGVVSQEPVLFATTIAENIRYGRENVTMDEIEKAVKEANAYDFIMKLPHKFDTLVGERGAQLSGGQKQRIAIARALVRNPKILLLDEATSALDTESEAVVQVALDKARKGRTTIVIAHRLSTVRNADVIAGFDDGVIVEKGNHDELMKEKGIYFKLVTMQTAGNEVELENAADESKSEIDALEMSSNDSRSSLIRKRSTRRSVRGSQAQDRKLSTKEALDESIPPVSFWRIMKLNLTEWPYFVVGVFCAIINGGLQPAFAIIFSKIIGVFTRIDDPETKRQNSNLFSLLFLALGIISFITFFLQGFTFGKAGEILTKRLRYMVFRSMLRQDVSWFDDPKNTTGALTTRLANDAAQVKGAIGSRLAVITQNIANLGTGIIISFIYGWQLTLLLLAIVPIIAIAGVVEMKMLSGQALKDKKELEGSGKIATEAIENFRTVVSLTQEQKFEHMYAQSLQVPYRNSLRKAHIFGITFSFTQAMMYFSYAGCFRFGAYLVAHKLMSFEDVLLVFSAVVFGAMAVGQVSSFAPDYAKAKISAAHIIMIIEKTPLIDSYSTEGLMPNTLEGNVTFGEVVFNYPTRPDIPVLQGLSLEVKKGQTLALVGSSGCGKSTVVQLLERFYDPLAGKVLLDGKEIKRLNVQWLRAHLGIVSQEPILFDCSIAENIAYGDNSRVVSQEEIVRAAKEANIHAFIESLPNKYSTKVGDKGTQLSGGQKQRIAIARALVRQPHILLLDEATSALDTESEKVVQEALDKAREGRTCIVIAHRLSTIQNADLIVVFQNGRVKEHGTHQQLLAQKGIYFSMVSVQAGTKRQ
Chain of P-gp (Oryctolagus cuniculus, UniProt Q6UUW3) (Q6UUW3 1-1279): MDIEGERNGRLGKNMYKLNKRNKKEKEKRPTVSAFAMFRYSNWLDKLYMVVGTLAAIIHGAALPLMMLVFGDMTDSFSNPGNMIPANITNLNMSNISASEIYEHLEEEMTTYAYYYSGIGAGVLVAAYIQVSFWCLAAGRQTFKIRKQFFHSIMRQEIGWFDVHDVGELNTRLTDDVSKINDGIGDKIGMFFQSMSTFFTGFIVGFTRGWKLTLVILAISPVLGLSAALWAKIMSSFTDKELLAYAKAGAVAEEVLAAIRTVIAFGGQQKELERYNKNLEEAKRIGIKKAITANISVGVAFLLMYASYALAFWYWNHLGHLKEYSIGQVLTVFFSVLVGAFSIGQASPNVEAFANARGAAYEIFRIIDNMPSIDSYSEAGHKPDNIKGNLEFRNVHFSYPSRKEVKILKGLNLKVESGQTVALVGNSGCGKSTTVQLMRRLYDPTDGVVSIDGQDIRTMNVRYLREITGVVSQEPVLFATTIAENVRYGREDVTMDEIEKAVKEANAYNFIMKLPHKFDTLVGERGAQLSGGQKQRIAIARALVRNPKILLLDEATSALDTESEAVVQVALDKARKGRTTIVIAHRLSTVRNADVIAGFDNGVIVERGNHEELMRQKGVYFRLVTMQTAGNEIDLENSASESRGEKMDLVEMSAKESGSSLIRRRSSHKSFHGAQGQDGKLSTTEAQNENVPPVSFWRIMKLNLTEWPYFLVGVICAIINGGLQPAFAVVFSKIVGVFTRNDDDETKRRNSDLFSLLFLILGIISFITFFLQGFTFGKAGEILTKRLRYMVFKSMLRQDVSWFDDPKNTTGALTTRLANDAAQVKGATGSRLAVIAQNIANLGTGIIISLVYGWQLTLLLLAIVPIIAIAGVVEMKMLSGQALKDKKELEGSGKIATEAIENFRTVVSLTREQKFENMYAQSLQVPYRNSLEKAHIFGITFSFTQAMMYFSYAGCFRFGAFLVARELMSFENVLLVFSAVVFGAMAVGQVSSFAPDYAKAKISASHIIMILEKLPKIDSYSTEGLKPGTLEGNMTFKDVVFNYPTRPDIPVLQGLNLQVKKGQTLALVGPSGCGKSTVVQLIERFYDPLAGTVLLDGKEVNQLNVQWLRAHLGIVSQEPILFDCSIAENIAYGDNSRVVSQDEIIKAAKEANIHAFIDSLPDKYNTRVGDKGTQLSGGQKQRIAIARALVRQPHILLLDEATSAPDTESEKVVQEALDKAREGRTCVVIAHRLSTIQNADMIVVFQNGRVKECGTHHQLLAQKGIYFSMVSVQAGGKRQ

Take `CN(CC(=O)O)C(=O)CN` [Gly-Sar, Glycyl-Sarcosine] (H-Gly-[Sar]-OH): the results for the “Reduction of [^3H]Gly-Sar uptake” value in [1] (1 mM unlabeled Gly-Sar) and in [1] (2 mM unlabeled Gly-Sar) were 20% and 41%, respectively. Also, the figures for the “Uptake of [^3H]Gly-Sar” value in [1] (1 mM unlabeled Gly-Sar) and in [1] (2 mM unlabeled Gly-Sar) were 0.026 pmol/min/mg and 0.019 pmol/min/mg, respectively. Moreover, in [1] (unlabeled Gly-Sar 1 mM and 2 mM), the “Concentration dependence of [^3H]Gly-Sar cellular accumulation” value is on record as “concentration dependent decrease; also recorded: concentration dependent reduction”.

Turning to `CC(C)[C@H](NC(=O)CN)C(=O)O[C@H](CN1C[C@H]2CCCC[C@H]2C[C@H]1C(=O)NC(C)(C)C)[C@H](Cc1ccccc1)NC(=O)[C@H](CC(N)=O)NC(=O)c1ccc2ccccc2n1` [Gly-Val-SQV, Gly-Val-saquinavir], in [2], the “Half-life (t1/2) in MDCK-MDR1 cell homogenates” value was found to be 1.75 ± 0.11 h. In series [3], the “Half-life (t1/2) in DPBS, pH 5” value is on record as 34.5±0.85 h and the “Half-life (t1/2) in DPBS, pH 7.4” value turned out to be 13.1±0.33 h. Moreover, in [4] (MDCK-MDR1), the “Efflux ratio (BL Papp/AP Papp)” value stood at 6. The “Concentration at which the prodrug saturates P-gp” value in series [5] worked out at 75 µM. In addition, in [6], the “Effect on [^3H]Gly-Sar uptake” value was “significantly decreased”, the “Reduction of [^3H]Gly-Sar uptake” value stood at 42% and the “Concentration dependence of inhibition of [^3H]Gly-Sar uptake” value was “concentration dependent inhibition”.

For the compound `CC(C)(C)NC(=O)[C@@H]1C[C@@H]2CCCC[C@@H]2CN1C[C@@H](O)[C@H](Cc1ccccc1)NC(=O)[C@H](CC(N)=O)NC(=O)c1ccc2ccccc2n1` [SQV, saquinavir, reference compound], the “Effect on [^3H]Gly-Sar uptake” value in [6] is listed as “did not demonstrate any significant inhibition”.

On to `C=CC1CN2CCC1CC2C(OC(=O)C(N)C(C)C)c1ccnc2ccc(OC)cc12` (centres unmarked) [Val-Q, Val-Quinidine], for which, in series [1], the “Inhibition of [^3H]Gly-Sar uptake” value is “concentration dependent inhibition”. Besides, the “Difference between AP-BL and BL-AP permeability” value in series [4] (MDCK-MDR1) is on record as “equivalent”. Also, in series [4] (MDCK-MDR1, pH 7.4), the “Apparent permeability Papp AP-BL” value is recorded as 5.13±0.49×10^−6 cm.s^−1 and the “Apparent permeability Papp BL-AP” value is 6.17±1.28×10^−6 cm.s^−1.

Turning to `C=C[C@H]1CN2CC[C@H]1C[C@@H]2[C@@H](OC(=O)[C@@H](NC(=O)[C@@H](N)C(C)C)C(C)C)c1ccnc2ccc(OC)cc12` [Val-Val-Q, Val-Val-Quinidine], in series [1], the “Inhibition of [^3H]Gly-Sar uptake” value was “concentration dependent inhibition”.

For the compound `CC(C)[C@H](N)C(=O)N[C@H](C(=O)O[C@H](CN1C[C@H]2CCCC[C@H]2C[C@H]1C(=O)NC(C)(C)C)[C@H](Cc1ccccc1)NC(=O)[C@H](CC(N)=O)NC(=O)c1ccc2ccccc2n1)C(C)C` [Val-Val-SQV, Val-Val-saquinavir], the “Half-life (t1/2) in MDCK-MDR1 cell homogenates” value in [2] stood at 6.6 ± 0.56 h. In [3], the “Half-life (t1/2) in DPBS, pH 5” value amounted to 94.8±21.4 h and the “Half-life (t1/2) in DPBS, pH 7.4” value is 18.3±1.4 h. In [4] (MDCK-MDR1), the “Efflux ratio (BL Papp/AP Papp)” value is recorded as 6. Further, the “Concentration at which the prodrug saturates P-gp” value in [5] was 50 µM. Besides, in series [6], the “Effect on [^3H]Gly-Sar uptake” value is listed as “significantly decreased”, the “Reduction of [^3H]Gly-Sar uptake” value is listed as 35% and the “Concentration dependence of inhibition of [^3H]Gly-Sar uptake” value was “concentration dependent inhibition”.

As for `OC[C@@H](O)[C@@H](O)[C@H](O)[C@H](O)CO` [[^14C]mannitol, mannitol, reference compound], the Papp in series [7] is below 0.2 ×10⁻⁶ cm/s. Also, in [4] (dog, MDCK-MDR1), the “[^14C]mannitol transport across the cell monolayer” value is given as below 0.5 %/h.

For `C=C[C@H]1C[N@@]2CC[C@H]1C[C@@H]2[C@@H](O)c1ccnc2ccc(OC)cc12` [quinidine, reference compound], the “Inhibition of [^3H]Gly-Sar uptake” value in series [1] is given as “did not demonstrate any inhibition”. For the same compound, the “Difference between AP-BL and BL-AP permeability” value in [4] (MDCK-MDR1) was “three fold difference”. In series [8], this compound had an apical-to-basolateral permeability (Papp A→B) at 3 h, 10 μM of 6.5 ×10⁻⁶ cm/s and a Papp B→A at 3 h, 10 μM of 18.3 ×10⁻⁶ cm/s. In series [9], the “Inhibition of the P-gp mediated efflux pump” value is listed as “caused inhibition”. The “Inhibitory effect on P-gp mediated efflux ([^3H]erythromycin uptake)” value in [10] is on record as “high inhibitory effect”.
